Source: PubChem BioAssay (NCI)
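48-hour exposure; five concentrations; linearly interpolated endpoints. The concentration for full growth arrest is given as TGI.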

Key:
Experiment in all cases: NCI anticancer screen, dose series, 48 h
HCT-15 colon = tested on: HCT-15 colon
ACHN renal = tested on: ACHN renal
MALME-3M melanoma = tested on: MALME-3M melanoma
MCF7 breast = tested on: MCF7 breast
NCI-H522 lung = tested on: NCI-H522 lung
CCRF-CEM leukemia = tested on: CCRF-CEM leukemia
LOX IMVI melanoma = tested on: LOX IMVI melanoma
HS 578T breast = tested on: HS 578T breast
OVCAR-5 ovarian = tested on: OVCAR-5 ovarian
M14 melanoma = tested on: M14 melanoma
MDA-N = tested on: MDA-N
OVCAR-8 ovarian = tested on: OVCAR-8 ovarian
IGROV1 ovarian = tested on: IGROV1 ovarian
HCT-116 colon = tested on: HCT-116 colon
A549 NSCLC = tested on: A549 NSCLC
HOP-92 NSCLC = tested on: HOP-92 NSCLC
OVCAR-4 ovarian = tested on: OVCAR-4 ovarian
HOP-18 NSCLC = tested on: HOP-18 NSCLC

| SMILES | TGI (HCT-15 colon) | TGI (ACHN renal) | TGI (MALME-3M melanoma) | TGI (MCF7 breast) | TGI (NCI-H522 lung) | TGI (CCRF-CEM leukemia) | TGI (LOX IMVI melanoma) | TGI (HS 578T breast) | TGI (OVCAR-5 ovarian) | TGI (M14 melanoma) | TGI (MDA-N) | TGI (OVCAR-8 ovarian) | TGI (IGROV1 ovarian) | TGI (HCT-116 colon) | TGI (A549 NSCLC) | TGI (HOP-92 NSCLC) | TGI (OVCAR-4 ovarian) | TGI (HOP-18 NSCLC) |
| --- | --- | --- | --- | --- | --- | --- | --- | --- | --- | --- | --- | --- | --- | --- | --- | --- | --- | --- |
| Cc1ccc2c(c1)C(=O)/C(=C1/CCc3ccc(C)cc31)C2 | > 100 µM | > 100 µM | > 100 µM | > 100 µM | > 100 µM | > 100 µM | > 100 µM | > 100 µM | > 100 µM | > 100 µM | > 100 µM | > 100 µM | > 100 µM | > 100 µM | > 100 µM | > 100 µM | > 100 µM | – |
| Cc1cc(S(=O)(=O)Nc2nc(N)n(-c3cnc4ccccc4n3)n2)c(S)cc1Cl | > 100 µM | > 100 µM | > 100 µM | > 100 µM | > 100 µM | > 100 µM | > 100 µM | > 100 µM | > 100 µM | > 100 µM | > 100 µM | > 100 µM | > 100 µM | > 100 µM | > 100 µM | 89.2 µM | > 100 µM | – |
| O=C(Sc1c(-c2ccccc2)c(=O)n(-c2ccccc2)c(=S)n1-c1ccccc1)c1ccc(Cl)cc1 | > 100 µM | > 100 µM | > 100 µM | > 100 µM | > 100 µM | > 100 µM | > 100 µM | > 100 µM | > 100 µM | > 100 µM | > 100 µM | > 100 µM | > 100 µM | > 100 µM | > 100 µM | > 100 µM | > 100 µM | – |
| CCCCCCCC/C=C\CCCCCCCCNc1ccn(C2OC(COP(=O)(O)OC3CC(n4cc(F)c(=O)[nH]c4=O)OC3CO)C(O)C2O)c(=O)n1 (stereo unspecified) | > 100 µM | > 100 µM | > 100 µM | > 100 µM | > 100 µM | 17.9 µM | > 37.2 µM | > 100 µM | > 100 µM | > 73.5 µM | > 100 µM | > 100 µM | > 100 µM | > 100 µM | > 100 µM | > 100 µM | > 100 µM | – |
| COc1ccc(C)c2c1N[C@](C)([C@]1(C)Nc3c(OC)ccc(C)c3C1=O)C2=O | > 100 µM | > 100 µM | > 100 µM | > 100 µM | > 100 µM | > 100 µM | > 100 µM | > 100 µM | > 100 µM | > 100 µM | > 100 µM | > 100 µM | > 100 µM | > 100 µM | > 100 µM | > 100 µM | > 100 µM | – |
| O=C(O)c1ccc(Nc2ccnc3cc(Cl)ccc23)cc1O | > 100 µM | > 100 µM | > 100 µM | > 100 µM | > 100 µM | > 100 µM | > 100 µM | > 100 µM | > 100 µM | > 100 µM | > 100 µM | > 100 µM | > 100 µM | > 100 µM | > 100 µM | > 100 µM | > 100 µM | – |
| CCSC(=Nc1ccccc1)SC | > 100 µM | > 100 µM | > 100 µM | – | > 100 µM | > 100 µM | > 100 µM | – | > 100 µM | > 100 µM | – | > 100 µM | > 100 µM | > 100 µM | > 100 µM | > 100 µM | > 100 µM | > 100 µM |
| O=S(=O)(O)c1cc(S(=O)(=O)O)c2c(N=Nc3cccc4ccccc34)c(O)ccc2c1 | > 100 µM | > 100 µM | > 100 µM | > 100 µM | > 100 µM | > 100 µM | > 100 µM | > 100 µM | > 100 µM | > 100 µM | > 100 µM | > 100 µM | > 100 µM | > 100 µM | > 100 µM | > 100 µM | > 100 µM | – |
| CN(CCc1ccc(Br)cc1)CCN1CCCCC1 | > 100 µM | > 100 µM | 48.7 µM | 54.4 µM | 51.7 µM | 36.6 µM | 94.2 µM | 52.6 µM | > 100 µM | 45.8 µM | 88 µM | > 100 µM | > 100 µM | > 100 µM | > 100 µM | 82.8 µM | > 100 µM | – |
| COC(=O)CCc1ccc2c(c1)CCC2 | > 100 µM | > 100 µM | > 100 µM | > 100 µM | > 100 µM | > 100 µM | > 100 µM | > 100 µM | > 100 µM | > 100 µM | > 100 µM | > 100 µM | > 100 µM | > 100 µM | > 100 µM | > 100 µM | > 100 µM | – |
| C[C@]12CC[C@@H]3c4ccc(OC(=O)c5ccccc5)cc4CC[C@H]3[C@@H]1CCC2OC(=O)c1cccc2c(=O)c3ccccc3[nH]c12 (stereo partly specified) | 29 µM | 46.8 µM | 46.8 µM | 30.2 µM | 45.2 µM | > 100 µM | 31 µM | 38.5 µM | 46.1 µM | 37.3 µM | 27.8 µM | 35.7 µM | 33.3 µM | 30.5 µM | 31.5 µM | 34.9 µM | 33.8 µM | – |
| CC(=O)C1(c2ccccc2)CCN(Cn2sc3nc(C)cc(C)c3c2=O)CC1 | 72.8 µM | 33.5 µM | 41.5 µM | > 100 µM | 29 µM | > 100 µM | 57.8 µM | > 100 µM | 39 µM | 71.6 µM | 41 µM | 74.6 µM | > 100 µM | 52 µM | > 100 µM | > 100 µM | 48 µM | – |
| CCCCCCCCCCCCCCCCOP(=O)(O)OP(=O)(O)OCC1OC(n2ccc(N)nc2=O)CC1O (stereo unspecified) | > 100 µM | > 100 µM | > 100 µM | > 100 µM | > 100 µM | > 100 µM | > 100 µM | > 100 µM | > 100 µM | > 100 µM | > 100 µM | > 100 µM | > 100 µM | > 100 µM | > 100 µM | > 100 µM | > 100 µM | – |
| CC1CCCOc2ccc(cc2)C=Nc2ccc(cc2)CCc2ccc(cc2)N=Cc2ccc(cc2)OCCC1 (stereo unspecified) | > 100 µM | > 100 µM | > 100 µM | > 100 µM | > 100 µM | > 100 µM | > 100 µM | > 100 µM | > 100 µM | > 100 µM | > 100 µM | > 100 µM | > 100 µM | > 100 µM | > 100 µM | > 100 µM | > 100 µM | – |
